Entries after “also recorded” stand apart in the source; their conditions may differ.
Tests used:
[1] = test system: hyperuricemia model of Kunmin mouse; test: Influence of l-carnitine on serum uric acid in hyperuricemia model of Kunmin mouse (oteracil potassium as inducer); assay type: in vivo; settings: for serum uric acid value (X ± S): peritoneal injection, blood one hour after injection of inducer, P < 0.01 vs negative control
Method: (§1) Fifty healthy kunmin Mouse (weight of 18-22 grams, male) were randomly divided into 5 groups, which are positive control group, negative control group, and small (250 mg/kg), medium (500 mg/kg) and large (1000 mg/kg) doses of 1-carnitine groups. The solvent for all solutions is 0.5% of sodium carboxymethyl cellulose (CMC—Na), with peritoneal injection in dose of 0.1 ml/10 g for all animals. For […], same dose of 0.5% of CMC—Na solution was injected. One hour after injection of inducer, blood samples were taken from eyeball, stet at room temperature for about one hour, centrifugation at 4000 r.p.m for 10 mins, supernatant was transferred to fresh tube for biochemical test of serum uric acid.
The efficacy of the composition described in the present invention is clearly shown in Example 1, where uricase inhibitor oteracil potassium is used as model inducer to induce hyperuricemia in Kunmin mouse, and administered Levocarnitine to observe novel pharmacological effect on the model.

normal kunmin mice = test: Influence of L-carnitine on serum uric acid level in normal Kunmin mouse; assay type: in vivo; settings: 300 mg/kg
Method: as §1, with “acid. Thirty healthy kunmin mouse (weight of 18-22 grams, male) were randomly divided into 3 groups, which are positive control group, negative control group, and 1-carnitine (300 mg/k) group. Others method was same as example 1.” for “acid.”

For `C[N+](C)(C)C[C@H](O)CC(=O)[O-]` [L-Carnitine, Levocarnitine (L-carnitine)], the “serum uric acid value (X ± S)” value ([1]; 250 mg/kg (small dose)) was 140.6 ± 51.55, the “serum uric acid value (X ± S)” value ([1]; 500 mg/kg (medium dose)) was 130.1 ± 34.8 and the “serum uric acid value (X ± S)” value ([1]; 1000 mg/kg (large dose)) was 131.7 ± 24.79. For the same molecule, the “effect on serum uric acid level (in words)” value ([1]; dose 250-1000 mg/kg) was “reduced serum uric acid level of model animal group significantly; also recorded: reduced the uric acid level significantly”, the “effect on uric acid level (in words)” value (normal kunmin mice) was “no effect on uric acid level” and the “serum uric acid value (X ± S)” value (normal kunmin mice; P > 0.05 vs normal positive control group) was 76.9 ± 30.77. For the same molecule, the “effect on uric acid level (in words)” value (normal kunmin mice; listed as 1-carnitine) was “not affecting uric acid level”.

Reference: patent US20080249168A1, “Pharmaceutical composition for gout” (priority 2007, published 2008)
